Among the data in PubChem BioAssay (NCI) are GI50 and TGI values, retold here.

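A five-concentration, 48-hour dose response in 96-well plates underlies each endpoint, interpolated linearly between surrounding concentrations. Here, GI50 denotes the concentration required for 50% inhibition of growth. TGI: concentration producing complete growth inhibition.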

Some test systems named below: SK-MEL-5 melanoma; NCI-H226 lung; HL-60(TB) leukemia; SNB-75 CNS; NCI/ADR-RES ovarian; OVCAR-8 ovarian; DU-145 prostate; HCT-15 colon; UACC-62 melanoma; MOLT-4 leukemia.
Common to all, as to test: DTP human tumour cell line panel, 48 h

Consider `CO/N=C(\COc1ccc2c(=O)c3ccccc3oc2c1)c1ccccc1`, for which the GI50 (as a rule, the concentration giving 50% growth inhibition) was 38.1 µM in the assay on SK-MEL-5 melanoma; 40.8 µM in the assay on NCI-H226 lung; greater than 100 µM in the assay with HL-60(TB) leukemia; 68.8 µM with SNB-75 CNS; 77.1 µM in the assay with NCI/ADR-RES ovarian; 30.4 µM in the assay with OVCAR-8 ovarian. For the same compound, the GI50 with DU-145 prostate is 22.4 µM; in the assay with HCT-15 colon, 51.9 µM; in the assay on UACC-62 melanoma, 21.6 µM; in the assay on MOLT-4 leukemia it was greater than 100 µM. The TGI (usually the concentration at which net growth stops) in the assay on SK-MEL-5 melanoma is greater than 100 µM; with NCI-H226 lung, greater than 100 µM; in the assay with HL-60(TB) leukemia, greater than 100 µM; with SNB-75 CNS it was greater than 100 µM; in the assay on NCI/ADR-RES ovarian it was greater than 100 µM; in the assay on OVCAR-8 ovarian, 97.2 µM. The TGI in the assay with DU-145 prostate was 61.4 µM; with HCT-15 colon, greater than 100 µM; in the assay with UACC-62 melanoma, 49.9 µM; in the assay with MOLT-4 leukemia it was greater than 100 µM.

As for `COc1ccc(C(=O)Cn2c(C(=O)c3ccccc3)nc3ccccc32)cc1`, the GI50 with SK-MEL-5 melanoma was 2.06 µM; in the assay on NCI-H226 lung, greater than 90.5 µM; in the assay with HL-60(TB) leukemia it was 0.916 µM; in the assay with SNB-75 CNS, 4.61 µM; with NCI/ADR-RES ovarian it was 1.49 µM; in the assay with OVCAR-8 ovarian, 10.2 µM. In addition, the GI50 in the assay with DU-145 prostate is 4.61 µM; in the assay with HCT-15 colon, 1.24 µM; with MOLT-4 leukemia it was 1.87 µM. Besides, the TGI was 6.06 µM in the assay on SK-MEL-5 melanoma; greater than 100 µM with NCI-H226 lung; greater than 22.9 µM in the assay with HL-60(TB) leukemia; greater than 100 µM in the assay with SNB-75 CNS; greater than 100 µM with OVCAR-8 ovarian; greater than 100 µM with DU-145 prostate. Besides, the TGI in the assay on HCT-15 colon, in the assay with UACC-62 melanoma and in the assay on MOLT-4 leukemia was greater than 100 µM each time.

Regarding `O=c1c2c([nH]c3nccn13)CCC2`, the TGI in the assay with SK-MEL-5 melanoma, in the assay with NCI-H226 lung, in the assay on HL-60(TB) leukemia, in the assay on SNB-75 CNS, in the assay with NCI/ADR-RES ovarian and in the assay with OVCAR-8 ovarian was greater than 10 µM throughout. The TGI in the assay on DU-145 prostate, in the assay on HCT-15 colon, in the assay on UACC-62 melanoma and in the assay with MOLT-4 leukemia was greater than 10 µM each time.

With `C[C@H]1[C@H](C)N1CC(O)Cn1ccnc1[N+](=O)[O-]` (stereo partly specified), the TGI in the assay on SK-MEL-5 melanoma, with NCI-H226 lung, in the assay on HL-60(TB) leukemia, in the assay on SNB-75 CNS, in the assay on NCI/ADR-RES ovarian and in the assay with OVCAR-8 ovarian was greater than 100 µM in each case. Also, the TGI with DU-145 prostate, in the assay on HCT-15 colon, in the assay with UACC-62 melanoma and in the assay on MOLT-4 leukemia was greater than 100 µM throughout.

`COc1cc(-c2nc3ccccc3s2)ccc1OCCCCOc1cc2c(cc1OC)C(=O)N1CCC[C@H]1C=N2`: the GI50 in the assay with SK-MEL-5 melanoma is 0.724 µM; in the assay on NCI-H226 lung it was 2.47 µM; in the assay on HL-60(TB) leukemia, 0.93 µM; in the assay on SNB-75 CNS, 1.4 µM; in the assay on NCI/ADR-RES ovarian, 2.13 µM; with OVCAR-8 ovarian it was 1.99 µM. For the same compound, the GI50 was 0.832 µM in the assay on DU-145 prostate, 1.7 µM with HCT-15 colon, 1.41 µM with UACC-62 melanoma and 0.952 µM in the assay with MOLT-4 leukemia. Further, the TGI was found to be 2.01 µM in the assay with SK-MEL-5 melanoma; 5.05 µM in the assay on NCI-H226 lung; 4.98 µM in the assay with HL-60(TB) leukemia; 2.84 µM with SNB-75 CNS; 6.12 µM with NCI/ADR-RES ovarian; 22.7 µM with OVCAR-8 ovarian. Also, the TGI in the assay on DU-145 prostate was 6.06 µM; in the assay on HCT-15 colon it was 4.46 µM; in the assay on UACC-62 melanoma it was 2.84 µM; in the assay on MOLT-4 leukemia it was 7.99 µM.

With `COc1ccc([C@H](CC(=O)O)N2CCN(CCCc3ccc4c(n3)NCCC4)C2=O)cn1`, the GI50 in the assay with SK-MEL-5 melanoma is 0.0501 µM; with NCI-H226 lung, 0.417 µM; with HL-60(TB) leukemia, greater than 100 µM; in the assay on SNB-75 CNS it was 0.0112 µM; in the assay on NCI/ADR-RES ovarian, greater than 100 µM; with OVCAR-8 ovarian, 0.277 µM. The GI50 with DU-145 prostate was 0.951 µM; with HCT-15 colon, 0.311 µM; with UACC-62 melanoma it was greater than 100 µM; with MOLT-4 leukemia, greater than 100 µM. Also, the TGI with SK-MEL-5 melanoma was 0.173 µM; with HL-60(TB) leukemia, greater than 100 µM; in the assay with SNB-75 CNS, 0.0278 µM; in the assay with NCI/ADR-RES ovarian it was greater than 100 µM; with OVCAR-8 ovarian, greater than 40 µM; in the assay with DU-145 prostate, 12.5 µM. Moreover, the TGI in the assay with UACC-62 melanoma and in the assay with MOLT-4 leukemia was greater than 100 µM in each case.

As to `C=C1C(=O)O[C@H]2[C@H]1CC/C(COC(=O)CCCCCC(=O)OC/C1=C/CC[C@@]3(C)O[C@H]3[C@H]3OC(=O)C(=C)[C@@H]3CC1)=C\CC[C@@]1(C)O[C@@H]21`, the GI50 with SK-MEL-5 melanoma is 1.91 µM; with NCI-H226 lung, 2.02 µM; in the assay on HL-60(TB) leukemia, 0.694 µM; in the assay with SNB-75 CNS, 3.05 µM; in the assay on NCI/ADR-RES ovarian, 3.64 µM; in the assay with OVCAR-8 ovarian, 2.65 µM. Also, the GI50 in the assay on DU-145 prostate was 3.19 µM; in the assay with HCT-15 colon it was 1.68 µM; in the assay with UACC-62 melanoma, 2.02 µM; in the assay on MOLT-4 leukemia it was 0.633 µM. Also, the TGI turned out to be 4.37 µM in the assay on SK-MEL-5 melanoma; 5.53 µM in the assay with NCI-H226 lung; 3.66 µM with HL-60(TB) leukemia; 29.6 µM in the assay on SNB-75 CNS; 24.8 µM with NCI/ADR-RES ovarian; 9.71 µM in the assay with OVCAR-8 ovarian. Moreover, the TGI stood at 12.1 µM with DU-145 prostate, 3.81 µM in the assay on HCT-15 colon, 4.92 µM with UACC-62 melanoma and 4.1 µM in the assay with MOLT-4 leukemia.

Regarding `CCCCC(SC(=S)N1CCCC1)C(=O)Nc1nc(CC(=O)OCC)cs1` (stereo unspecified), the GI50 in the assay with SK-MEL-5 melanoma was 13.1 µM; with NCI-H226 lung, 71 µM; with HL-60(TB) leukemia it was 25 µM; in the assay on SNB-75 CNS it was greater than 100 µM; in the assay on NCI/ADR-RES ovarian, 37.6 µM; in the assay with OVCAR-8 ovarian, 40.1 µM. Moreover, the GI50 was 67.3 µM in the assay on DU-145 prostate, 66.1 µM in the assay on HCT-15 colon, 76.4 µM with UACC-62 melanoma and 1.91 µM in the assay on MOLT-4 leukemia. For the same compound, the TGI in the assay with SK-MEL-5 melanoma is 45.6 µM; in the assay on NCI-H226 lung, greater than 100 µM; in the assay with HL-60(TB) leukemia it was greater than 100 µM; with SNB-75 CNS it was greater than 100 µM; in the assay on NCI/ADR-RES ovarian, greater than 100 µM; in the assay on OVCAR-8 ovarian it was greater than 100 µM. Besides, the TGI in the assay with DU-145 prostate, with HCT-15 colon, in the assay with UACC-62 melanoma and with MOLT-4 leukemia was greater than 100 µM throughout.
